{"source": "patent US8124834B2", "about": "“Use of active cytokinin synthase gene” (Riken, priority 2006, dated 2012)", "data": [{"molecular_target": "T1, LOG protein (Oryza sativa subsp. japonica, UniProt Q5ZC82)", "T1 sequence (Q5ZC82 1-242)": "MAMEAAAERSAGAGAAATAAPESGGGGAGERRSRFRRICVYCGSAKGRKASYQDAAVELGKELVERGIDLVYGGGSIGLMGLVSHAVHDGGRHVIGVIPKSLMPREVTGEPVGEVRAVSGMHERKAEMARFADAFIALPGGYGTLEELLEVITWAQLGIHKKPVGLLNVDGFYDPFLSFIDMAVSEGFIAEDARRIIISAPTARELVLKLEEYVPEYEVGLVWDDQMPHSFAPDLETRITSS", "assay": "Measurement of Km value of LOG protein to iPRMP and tZRMP", "format": "biochemical", "set-up": "the protein coding region of the LOG gene cDNA was inserted into pCOLD-I (TaKaRa), a His-tag protein expression vector; made in house; host or cells: E. coli BL21(DE3)[pG-Tf2]", "settings": "substrate 5, 8, 15, 30 and 100 μM, 0.02 μg LOG protein, pH 6.5, experiment carried out three times", "method": "(§1) In order to obtain the Km value of the LOG protein to typical substrates iPRMP and tZRMP, the following experiment was carried out. 0.02 μg of LOG protein was used for a single reaction, and it was reacted with a substrate in a substrate concentration of each of 5, 8, 15, 30 and 100 μM in 200 μl of a reaction solution containing 50 mM Tris-HCl, 1 mM MgCl2, 1 mM DTT, pH 6.5. Thereafter, 0 minute, 2 minutes and 4 minutes after initiation of the reaction, 600 μl of cold acetone was added to the reaction solution to terminate the reaction. The reaction solution was left at rest at −80° C. for 30 minutes, and it was then centrifuged at 15,000 rpm for 20 minutes. Thereafter, a supernatant was dried using a centrifugal thickener. The resultant was dissolved in 100 μl of 2% acetic acid, and a reaction product was then detected and quantified under the same conditions as those for the liquid chromatography of Example 2. Only the injection amount was changed to 50 μl. The aforementioned experiment was carried out three times, and the Km value was calculated.", "units": {"Km": "µM"}, "values": [{"molecule": "C/C(=C\\CNc1ncnc2c1ncn2[C@@H]1O[C@H](COP(=O)(O)O)[C@@H](O)[C@H]1O)CO", "note": "(relative stereo) [tZRMP, trans-zeatin riboside 5′-monophosphate]", "Km": "22 ± 3.6"}]}, {"molecular_target": "T1, LOG protein", "assay": "Measurement of Km value of LOG protein to iPRMP and tZRMP", "format": "biochemical", "set-up": "the protein coding region of the LOG gene cDNA was inserted into pCOLD-I (TaKaRa), a His-tag protein expression vector; made in house; host or cells: E. coli BL21(DE3)[pG-Tf2]", "settings": "substrate 5-100 μM, 0.02 μg LOG protein, pH 6.5", "method": "as §1", "units": {"specific activity of the LOG protein": "μmol/min^−1/mg^−1 protein"}, "values": [{"molecule": "C/C(=C\\CNc1ncnc2c1ncn2[C@@H]1O[C@H](COP(=O)(O)O)[C@@H](O)[C@H]1O)CO", "note": "(relative stereo) [tZRMP, trans-zeatin riboside 5′-monophosphate]", "specific activity of the LOG protein": 4.2}]}, {"tested_on": "not listed separately", "assay": "Enzyme properties of AtLOG 1, 2, 3, 4, 5, 7 and 8 proteins having iPRMP as substrate", "format": "biochemical, Arabidopsis thaliana", "settings": "not given", "method": "as §1\nThe enzyme activity of each of the purified AtLOG proteins was evaluated under the same reaction conditions as those of Example 2. […] In addition, the enzyme property of each AtLOG protein to iPRMP was determined in the same manner as in Example 5 (Table 4). In Table 4, the Km, Vmax and Kcat values were calculated based on a reaction under the optimal pH condition of each AtLOG protein.", "units": {"Optimal pH": "pH"}, "values": [{"molecule": "AtLOG2: Arabidopsis thaliana LOG homolog protein, gene At2g35990, amino acid sequence SEQ ID NO: 6, purified from E. coli (protein, listed as Arabidopsis sp.) MEETKSRFRRICVFCGSSSGNKTTYHDAALQLAHQLVERNIDLVYGGGSVGLMGLISQAVHDGGRHVLGIIPKSLAPREITGESIGEVITVSTMHQRKAEMGRQADAFIALPGGYGTFEELLEVITWSQLGIHTKPVGLLNVDGFYDSLLTFIDKAVDEGFVSSTARRIIVSAPNAPQLLQLLEEYVPKHDDFVSKMVWDNTTDAFTLEGDSF", "Optimal pH": 6.5}, {"molecule": "AtLOG7: Arabidopsis thaliana LOG homolog protein, gene At5g06300, amino acid sequence SEQ ID NO: 14, purified from E. coli (protein, listed as Arabidopsis sp.) MEETKSRFKRICVFCGSSSGKKPSYQEAAIQLGNELVERRIDLVYGGGSVGLMGLVSQAVHHGGRHVLGVIPKTLMPREITGETIGEVKAVADMHQRKAEMARQADAFIALPGGYGTLEELLEVITWAQLGIHRKPVGLLNVDGYYNSLLTFIDKAVDEGFISPMARRIIVSAPNAKELVRQLEEYEPEFDEITSKLVWDEVDRISYVPGSEVATAT", "Optimal pH": 6.5}, {"molecule": "AtLOG1: Arabidopsis thaliana LOG homolog protein, gene At2g28305, amino acid sequence SEQ ID NO: 4, purified from E. coli (protein, listed as Arabidopsis sp.) MEIESKFKRICVFCGSSAGNKVSYKDAAIELGTELVSRNIDLVYGGGSIGLMGLISQAVFNGGRHVIGVIPKTLMPREITGETVGEVKAVADMHQRKAEMAKHSDAFIALPGGYGTLEELLEVITWAQLGIHDKPVGLLNVEGYYNSLLSFIDKAVEEGFISPTARHIIVSAPSAKELVKKLEDYVPRHEKVASKKSWEMEQIGLSPTCEISR", "Optimal pH": 6.5}, {"molecule": "AtLOG4: Arabidopsis thaliana LOG homolog protein, gene At3g53450, amino acid sequence SEQ ID NO: 10, purified from E. coli (protein, listed as Arabidopsis sp.) MEVNNETMQKSKFGRICVFCGSSQGKKSSYQDAAVDLGNELVLRNIDLVYGGGSIGLMGLVSQAVHDGGRHVIGVIPKTLMPRELTGETVGEVRAVADMHQRKAEMARHSDAFIALPGGYGTLEELLEVITWAQLGIHDKPVGLLNVDGYYNSLLSFIDKAVEEGFISTNARQIIISAPTAKELVKKLEEYSPCHESVATKLCWEIERIDYSSED", "Optimal pH": 6.5}, {"molecule": "AtLOG8: Arabidopsis thaliana LOG homolog protein, gene At5g11950, amino acid sequence SEQ ID NO: 16, purified from E. coli (protein, listed as Arabidopsis sp.) MEDNQRSRFRKICVFCGSHSGHREVFSDAAIELGNELVKRKIDLVYGGGSVGLMGLISRRVYEGGLHVLGIIPKALMPIEISGETVGDVRVVADMHERKAAMAQEAEAFIALPGGYGTMEELLEMITWSQLGIHKKTVGLLNVDGYYNNLLALFDTGVEEGFIKPGARNIVVSAPTAKELMEKMEEYTPSHMHVASHESWKVEELGDYPGQENKPQ", "Optimal pH": 7.0}, {"molecule": "AtLOG5: Arabidopsis thaliana LOG homolog protein, gene At4g35190, amino acid sequence SEQ ID NO: 12, purified from E. coli (protein, listed as Arabidopsis sp.) MEIVKSRFKRVCVFCGSSSGKRECYSDAATDLAQELVTRRLNLVYGGGSIGLMGLVSQAVHEAGGHVLGIIPRTLMDKEITGETYGEVIAVADMHERKAEMARHSDCFIALPGGYGTLEELLEVIAWAQLGIHDKPVGLLNVDGYYNYLLTFIDKAVDDGFIKPSQRHIFVSAPNAKELVQKLEAYKPVNDGVIAKSRWEVEKKVQQPQQQQQVVFCSNTSMQTEIAL", "Optimal pH": 5.4}, {"molecule": "AtLOG3: Arabidopsis thaliana LOG homolog protein, gene At2g37210, amino acid sequence SEQ ID NO: 8, purified from E. coli (protein, listed as Arabidopsis sp.) MEIKGESMQKSKFRRICVFCGSSQGKKSSYQDAAVDLGNELVSRNIDLVYGGGSIGLMGLVSQAVHDGGRHVIGIIPKTLMPRELTGETVGEVRAVADMHQRKAEMAKHSDAFIALPGGYGTLEELLEVITWAQLGIHDKPVGLLNVDGYYNSLLSFIDKAVEEGFISPTAREIIVSAPTAKELVKKLEEYAPCHERVATKLCWEMERIGYSSEE", "Optimal pH": 6.5}]}, {"molecular_target": "T1, LOG protein", "assay": "Substrate specificity of LOG protein to nucleotide cytokinin forms and AMP", "format": "biochemical", "set-up": "the protein coding region of the LOG gene cDNA was inserted into pCOLD-I (TaKaRa), a His-tag protein expression vector; made in house; host or cells: E. coli BL21(DE3)[pG-Tf2]", "settings": "0.02 μg LOG protein, 100 μM substrate, pH 6.5, 4 minutes (iPRDP, iPRTP: 0.01 μg, 2 minutes)", "method": "The reaction specificity of the LOG protein to a nucleotide cytokinin form was analyzed. […] The following 7 types of substrates were used: iPRMP, tZRMP, dihydrozeatin riboside 5′-monophosphate (DZRMP), cZR 5′-monophosphate (cZRMP), iPR 5′-diphosphate (iPRDP), iPR 5′-triphosphate (iPRTP), and AMP. The reaction conditions are as follows. 0.02 μg of the LOG protein was used for a single reaction, and it was reacted with a 100 μM substrate in 200 μl of a reaction solution containing 50 mM Tris-HCl, 1 mM MgCl2, 1 mM DTT, pH 6.5. Thereafter, 0 minute and 4 minutes after initiation of the reaction, 600 μl of cold acetone was added to the reaction solution to terminate the reaction. The reaction solution was left at rest at −80° C. for 30 minutes, and it was then centrifuged at 15,000 rpm for 20 minutes. Thereafter, a supernatant was dried using a centrifugal thickener. […] Only the injection amount was changed to 50 μl. In the case of iPRDP and iPRTP, the amount of a reaction solution was determined to be 100 μl, the mass of a protein used was determined to be 0.01 μg, and the reaction time was determined to be 2 minutes.", "values": [{"molecule": "C/C(=C\\CNc1ncnc2c1ncn2[C@@H]1O[C@H](COP(=O)(O)O)[C@@H](O)[C@H]1O)CO", "note": "(relative stereo) [tZRMP, trans-zeatin riboside 5′-monophosphate]", "reactivity of LOG protein to the substrate (substrate specificity)": "uses as a substrate"}, {"molecule": "CC(CO)CCNc1ncnc2c1ncn2C1OC(COP(=O)(O)O)C(O)C1O", "note": "(stereo not shown) [DZRMP, dihydrozeatin riboside 5′-monophosphate]", "reactivity of LOG protein to the substrate (substrate specificity)": "uses as a substrate"}, {"molecule": "cis-zeatin riboside 5′-monophosphate [cZRMP]", "reactivity of LOG protein to the substrate (substrate specificity)": "uses as a substrate"}]}, {"molecular_target": "T1, LOG protein", "assay": "Detection of enzyme activity of recombinant LOG protein with cytokinin substrates (HPLC)", "format": "biochemical", "set-up": "the protein coding region of the LOG gene cDNA was inserted into pCOLD-I (TaKaRa), a His-tag protein expression vector; made in house; host or cells: E. coli BL21(DE3)[pG-Tf2]", "settings": "3 μg LOG protein, 50 μM substrate, pH7, 30° C., 2 hours, HPLC absorption at 270 nm", "method": "The following 8 types of cytokinin substrates were used: N^6-(delta-2-isopentenyl)adenine (iP), trans-zeatin (tZ), cis-zeatin (cZ), iP riboside (iPR), tZ riboside (tZR), cZ riboside (cZR), iPR 5′-monophosphate (iPRMP), and tZR 5′-monophosphate (tZRMP). As reaction conditions, 100 μl of a reaction solution containing 50 mM Tris-HCl, 1 mM MgCl2, and a 50 μM substrate, pH7 was incubated at 30° C. for 2 hours. Thereafter, 10 μl of 20% acetic acid was added to the reaction solution to terminate the reaction, and the reaction solution was then centrifuged at 15,000 rpm at a room temperature for 20 minutes. […] For elution, solvent C (100% acetonitrile) and solvent D (2% acetic acid) were used.", "values": [{"molecule": "C/C(=C\\CNc1ncnc2c1ncn2[C@@H]1O[C@H](COP(=O)(O)O)[C@@H](O)[C@H]1O)CO", "note": "(relative stereo) [tZRMP, trans-zeatin riboside 5′-monophosphate]", "reactivity of the substrate with recombinant LOG protein (conversion to base form)": "completely converted"}, {"molecule": "C/C(=C/CNc1ncnc2nc[nH]c12)CO", "note": "[cZ, cis-zeatin]", "reactivity of the substrate with recombinant LOG protein (conversion to base form)": "no reactivity"}, {"molecule": "C/C(=C/CNc1ncnc2c1ncn2[C@@H]1O[C@H](CO)[C@@H](O)[C@H]1O)CO", "note": "[cZR, cZ riboside]", "reactivity of the substrate with recombinant LOG protein (conversion to base form)": "no reactivity"}, {"molecule": "CC(C)=CCNc1ncnc2nc[nH]c12", "note": "[iP, N^6-(delta-2-isopentenyl)adenine]", "reactivity of the substrate with recombinant LOG protein (conversion to base form)": "no reactivity"}, {"molecule": "CC(C)=CCNc1ncnc2c1ncn2[C@@H]1O[C@H](CO)[C@@H](O)[C@H]1O", "note": "[iPR, iP riboside]", "reactivity of the substrate with recombinant LOG protein (conversion to base form)": "no reactivity"}, {"molecule": "C/C(=C\\CNc1ncnc2nc[nH]c12)CO", "note": "[tZ, trans-zeatin]", "reactivity of the substrate with recombinant LOG protein (conversion to base form)": "no reactivity"}, {"molecule": "C/C(=C\\CNc1ncnc2c1ncn2[C@@H]1O[C@H](CO)[C@@H](O)[C@H]1O)CO", "note": "[tZR, tZ riboside]", "reactivity of the substrate with recombinant LOG protein (conversion to base form)": "no reactivity"}]}]}
